According to article doi:10.1101/2022.03.17.484770v1 (biorxiv, 2022):

Molecular target: T1, IRI1/LHT1 (Arabidopsis thaliana, UniProt Q9FKS8)
T1 sequence (Q9FKS8 1-446): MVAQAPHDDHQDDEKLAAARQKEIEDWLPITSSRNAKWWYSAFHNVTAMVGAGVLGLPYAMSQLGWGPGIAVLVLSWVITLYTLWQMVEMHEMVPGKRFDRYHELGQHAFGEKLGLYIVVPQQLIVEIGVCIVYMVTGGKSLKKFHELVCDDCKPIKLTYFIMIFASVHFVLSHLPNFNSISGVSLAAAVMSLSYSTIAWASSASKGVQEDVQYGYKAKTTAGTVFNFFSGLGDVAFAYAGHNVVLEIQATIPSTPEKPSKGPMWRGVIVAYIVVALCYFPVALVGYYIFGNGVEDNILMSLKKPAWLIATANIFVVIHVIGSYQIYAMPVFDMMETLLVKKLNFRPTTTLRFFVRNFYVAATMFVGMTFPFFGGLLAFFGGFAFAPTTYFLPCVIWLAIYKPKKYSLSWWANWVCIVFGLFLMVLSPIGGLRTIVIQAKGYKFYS
Assay: inhibition of […]-L-Ala uptake in yeast
Assay type: cell-based

Ki [µM] | Compound
24.7 | CC(N)CC(=O)O (racemic) [BABA, β-amino butyric acid]
39.2 | N[C@@H](CO)CC(=O)O [RBH, R-β-homoserine]
